Data on 32 compounds can be found in patent publication US20100029615A1, “BENZIMIDAZOLE DERIVATIVES” (priority 2006, published 2010).

Structures can show the parent of a compound that is named as a salt.

T1 sequence (P56726 33-793): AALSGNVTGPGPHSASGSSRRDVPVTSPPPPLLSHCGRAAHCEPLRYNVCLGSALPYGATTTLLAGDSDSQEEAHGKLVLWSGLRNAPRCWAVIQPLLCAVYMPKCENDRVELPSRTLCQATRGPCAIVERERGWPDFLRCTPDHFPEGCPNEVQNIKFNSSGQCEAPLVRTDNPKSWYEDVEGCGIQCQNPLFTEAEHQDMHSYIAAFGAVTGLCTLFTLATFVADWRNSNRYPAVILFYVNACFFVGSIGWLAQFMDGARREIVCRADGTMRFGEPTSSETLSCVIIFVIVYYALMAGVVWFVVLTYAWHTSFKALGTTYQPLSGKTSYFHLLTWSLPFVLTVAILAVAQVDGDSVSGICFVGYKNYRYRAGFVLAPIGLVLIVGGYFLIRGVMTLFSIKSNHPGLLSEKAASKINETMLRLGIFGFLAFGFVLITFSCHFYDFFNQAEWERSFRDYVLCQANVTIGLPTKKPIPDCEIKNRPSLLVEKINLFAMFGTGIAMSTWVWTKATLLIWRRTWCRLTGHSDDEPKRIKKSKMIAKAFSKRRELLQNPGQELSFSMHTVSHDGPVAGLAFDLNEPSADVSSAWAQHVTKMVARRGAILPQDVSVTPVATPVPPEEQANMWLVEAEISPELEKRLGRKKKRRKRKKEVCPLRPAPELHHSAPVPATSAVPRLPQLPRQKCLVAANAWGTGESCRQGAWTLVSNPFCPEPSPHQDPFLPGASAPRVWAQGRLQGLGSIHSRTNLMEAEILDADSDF

The first test concerns the target T1, SMO (Mus musculus, UniProt P56726).
T1 construct: endogenous in cells; host or cells: C3H10T1/2 (ATCC #CCL-226)
Put plainly: Smoothened (SMO)/Sonic Hedgehog (SHh) Transient Transcriptional Activation Assay (Gli-luciferase reporter in C3H10T1/2 cells). It counts as cell-based, murine. As to conditions: 2 uM test compound, SHh 250 ng/ml, 20 hrs. The method, boiled down:
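Luminescence (Dual-Glo) measured after 20 h co-exposure at 37 °C to 250 ng/ml human SHh and compound at 2 uM down to 2 nM final. Cells were C3H10T1/2 carrying a transfected murine 10× Gli response-element luciferase construct with pEGFP, starved 20 h in 0.5% calf serum beforehand.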
As for “N-((1R,3R)-3-(5-Methoxy-1H-benzo[d]imidazol-2-yl)cyclohexyl)-2,3-dihydrobenzo[b][1,4]dioxine-6-carboxamide and N-((1S,3S)-3-(5-methoxy-1H-benzo[d]imidazol-2-yl)cyclohexyl)-2,3-dihydrobenzo[b][1,4]dioxine-6-carboxamide [Example 49]”, the “SMO % inhibition at 2 uM” value was 92%.
Turning to “N-(3-(5-Cyano-1-methyl-1H-benzo[d]imidazol-2-yl)cyclohexyl]-2,3-dihydrobenzo[b][1,4]dioxine-6-carboxamide and N-(3-(6-Cyano-1-methyl-1H-benzo[d]imidazol-2-yl)cyclohexyl]-2,3-dihydrobenzo[b][1,4]dioxine-6-carboxamide [Example 20]”, the “SMO % inhibition at 2 uM” value is 103%.

Still in this test, the particulars now being: 2 μM test compound, SHh 250 ng/ml, 20 hrs, 2 µM.
Turning to `COc1cc(OC)cc(C(=O)N[C@@H]2CCC[C@H](c3nc4ccc(C(F)(F)F)cc4[nH]3)C2)c1` [Example 171, 3,5-dimethoxy-N-{(1R,3S)-3-[6-(trifluoromethyl)-1H-benzimidazol-2-yl]cyclohexyl} benzamide (+)-tartrate], the “SMO CELL % INHIBITION @ 2 μM” value is given as 107.2%.

The same test, now with this note: 2 μM test compound, SHh 250 ng/ml, 20 hrs, HCl, 2 µM.
Regarding `COc1cc(OC)cc(C(=O)NC23CCCC(c4nc5cc(C(F)(F)F)ccc5[nH]4)(C2)C3)c1` [Example 260, 3,5-dimethoxy-N-{5-[5-(trifluoromethyl)-1H-benzimidazol-2-yl]bicyclo[3.1.1]hept-1-yl}benzamide HCl], the “SMO CELL % INHIBITION @ 2 μM” value was 101.34%.

The same test, now with this note: C3H 10T1/2, 2 uM test compound, SHh 250 ng/ml, 20 hrs, read-out: SMO % inhibition at 2 uM.
In the case of `COc1cc(OC)cc(C(=O)NC2CCCC(c3nc4cc(C)ccc4n3C)C2)c1` (centres unmarked) [Example 27, N-(3-(1,5-Dimethyl-1H-benzo[d]imidazol-2-yl)cyclohexyl]-3,5-dimethoxybenzamide], the inhibition at 2 µM amounted to 84%.

The same test, now with this note: C3H 10T1/2, 2 μM test compound, SHh 250 ng/ml, 20 hrs, read-out: SMO CELL % INHIBITION @ 2 μM.
Consider `CC(=O)c1c(C)[nH]c(C(=O)NC2CCCC(c3nc4ccccc4[nH]3)C2)c1C` (centres unmarked) [Example 99, 4-acetyl-N-[3-(1H-benzimidazol-2-yl)cyclohexyl]-3,5-dimethyl-1H-pyrrole-2-carboxamide triflouroacetate], for which the inhibition at 2 µM was found to be 107%.
Still for that read-out and setting: in the case of `CN(C)CCNc1ccc(C(=O)N[C@@H]2CCC[C@H](c3nc4cc(C(F)(F)F)ccc4[nH]3)C2)cn1` [Example 293, 6-{[2-(dimethylamino)ethyl]amino}-N-{(1R,3S)-3-[5-(trifluoromethyl)-1H-benzimidazol-2-yl]cyclohexyl}-nicotinamide HCl] it was 106%.
Regarding `O=C(NC12CCCC(c3nc4cc(C(F)(F)F)ccc4[nH]3)(C1)C2)c1ccc2c(c1)CCCO2` [Example 276, N-{5-[5-(trifluoromethyl)-1H-benzimidazol-2-yl]bicyclo[3.1.1]hept-1-yl}chromane-6-carboxamide], the inhibition at 2 µM worked out at 84.7%.
The same measure, in the same setting: in the case of `O=C(COCc1ccccc1)NC1CCCC(c2nc3ccccc3[nH]2)C1` (centres unmarked) [Example 104, N-[3-(1H-benzimidazol-2-yl)cyclohexyl]-2-(benzyloxy)-acetamide triflouroacetate] it was 73%.
Consider `O=C(N[C@@H]1CCC[C@H](c2nc3ccccc3[nH]2)C1)c1ccc2snnc2c1` [Example 202, N-[(1R,3S)-3-(1H-benzimidazol-2-yl)cyclohexyl]-1,2,3-benzothiadiazole-5-carboxamide triflouroacetate], for which the inhibition at 2 µM turned out to be 34%.
Still for that read-out and setting: in the case of `COc1ccc(NC(=O)N[C@@H]2CCC[C@H](c3nc4ccccc4[nH]3)C2)cc1` [Example 232, 1-[(1R,3S)-3-(1H-benzimidazol-2-yl)cyclohexyl]-3-(4-methoxyphenyl) urea] it was 103%; in that of `O=C(N[C@@H]1CCC[C@H](c2nc3cc(C(F)(F)F)ccc3[nH]2)C1)c1n[nH]c2c1CCCCCC2` [Example 283, N-{(1R,3S)-3-[5-(trifluoromethyl)-1H-benzimidazol-2-yl]cyclohexyl} 4,5,6,7,8,9-hexahydro-1H-cycloocta[c]-pyrazole-3-carboxamide HCl], 106%.
The same measure, in the same setting: then `CN1C(=O)COc2ccc(C(=O)N[C@@H]3CCC[C@H](c4nc5cc(C(F)(F)F)ccc5[nH]4)C3)cc21` [Example 280, 4-methyl-3-oxo-N-{(1R,3S)-3-[5-(trifluoromethyl)-1H-benzimidazol-2-yl]cyclohexyl}-3,4-dihydro-2H-1,4-benzoxazine-6-carboxamide HCl], with 112%; and `O=C(NC1CCCC(c2nc3ccccc3[nH]2)C1)c1cccnc1` (centres unmarked) [Example 53, N-[3-(1H-benzimidazol-2-yl)cyclohexyl]-nicotinamide HCl], with 96%; and `O=C(Cc1ccc(Cl)s1)NC1CCCC(c2nc3ccccc3[nH]2)C1` (centres unmarked) [Example 131, N-[3-(1H-benzimidazol-2-yl)cyclohexyl]-2-(5-chloro-2-thienyl)acetamide triflouroacetate], with 101%.
As to `O=C(NC1CCCC1)N[C@@H]1CCC[C@H](c2nc3ccccc3[nH]2)C1` [Example 226, 1-((1R,3S)-3-(1H-benzo[d]imidaz-ol-2-yl)cyclohexyl)-3-cyclopentylurea], the inhibition at 2 µM was 63%.
The same measure, in the same setting: then `O=C(N[C@@H]1CCC[C@H](c2nc3ccccc3[nH]2)C1)c1cc2cc(Cl)ccc2o1` [Example 181, N-[(1R,3S)-3-(1H-benzimidazol-2-yl)cyclohexyl]-5-chloro-1-benzofuran-2-carboxamide triflouroacetate], with 104%; and `O=C(Cn1ncc2ccccc21)NC1CCCC(c2nc3ccccc3[nH]2)C1` (centres unmarked) [Example 95, N-[3-(1H-benzimidazol-2-yl)cyclohexyl]-2-(1H-indazol-1-yl)acetamide triflouroacetate], with 20%; and `Cc1c(Br)cc2[nH]c(C3CCCC(NC(=O)c4ccc5c(c4)OCCO5)C3)nc2c1C` (centres unmarked) [Example 82, N-[3-(6-bromo-4,5-dimethyl-1H-benzimidazol-2-yl)cyclohexyl]-2,3-dihydro-1,4-benzodioxine-6-carboxamide HCl], with 101%.
Still for that read-out and setting: then `O=C(NC1CCCC(c2nc3ccccc3[nH]2)C1)c1ccc2[nH]c(=O)[nH]c(=O)c2c1` (centres unmarked) [Example 158, N-[3-(1H-benzimidazol-2-yl)cyclohexyl]-2,4-dioxo-1,2,3,4-tetrahydroquin-azoline-6-carboxamide triflouroacetate], with 73%; and `O=C1CCc2cc(C(=O)N[C@@H]3CCC[C@H](c4nc5cc(Cl)ccc5[nH]4)C3)ccc2N1` [Example 300, N-[(1R,3S)-3-(5-chloro-1H-benzimidazol-2-yl)cyclohexyl]-2-oxo-1,2,3,4-tetrahydroquino-line-6-carboxamide (+)-tartrate], with 106%.
On the same count and under the same terms, in the case of `Cc1nn(C)c2sc(C(=O)N[C@@H]3CCC[C@H](c4nc5cc(C(F)(F)F)ccc5[nH]4)C3)cc12` [Example 284, 1,3-dimethyl-N-{(1R,3S)-3-[5-(trifluoromethyl)-1H-benzimidazol-2-yl]cyclohexyl}-1H-thieno[2,3-c]pyrazole-5-carboxamide HCl] it was 94.9%; in that of `O=C(CCCC(=O)NC1CCCC(c2nc3ccccc3[nH]2)C1)Nc1ccccc1` (centres unmarked) [Example 129, N-[3-(1H-benzimidazol-2-yl)cyclohexyl]-N′-phenylpentane diamide triflouroacetate], 95%; in that of `Cc1noc(C)c1NC(=O)N[C@@H]1CCC[C@H](c2nc3ccccc3[nH]2)C1` [Example 233, 1-((1R,3S)-3-(1H-benzo[d]imidaz-ol-2-yl)cyclohexyl)-3-(3,5-dimethylisoxaz-ol-4-yl)urea], 48%.
With `COc1ccc2[nH]c([C@H]3CCC[C@@H](NC(=O)c4ccc5c(c4)OCCO5)C3)nc2c1` [Example 88, N-[(1R,3S)-3-(5-methoxy-1H-benzimidazol-2-yl)cyclohexyl]-2,3-dihydro-1,4-benzodioxine-6-carboxamide HCl], the inhibition at 2 µM came out at 106%.
The same measure, in the same setting: in the case of `O=C(NC12CCCC(c3nc4ccccc4[nH]3)(C1)C2)c1ccc2c(c1)CCCO2` [Example 279, N-[5-(1H-benzimidazol-2-yl)bicyclo[3.1.1]hept-1-yl]chromane-6-carboxamide] it was 92.6%; in that of `O=C(NC1CCCC(c2nc3ccccc3[nH]2)C1)c1cnn(Cc2ccccc2)c1` (centres unmarked) [Example 91, N-[3-(1H-benzimidazol-2-yl)cyclohexyl]-1-benzyl-1H-pyrazole-4-carboxamide triflouroacetate], 99%; in that of `COc1ncccc1C(=O)NC1CCCC(c2nc3ccccc3[nH]2)C1` (centres unmarked) [Example 109, N-[3-(1H-benzimidazol-2-yl)cyclohexyl]-2-methoxynico-tinamide triflouroacetate], 97%.
For `O=C1COc2ccc(C(=O)N[C@@H]3CCCC(c4nc5ccccc5[nH]4)C3)cc2N1` (stereo partly drawn) [Example 294, N-[(1R)-3-(1H-benzimidazol-2-yl)cyclohexyl]-3-oxo-3,4-dihydro-2H-1,4-benzoxazine-6-carboxamide (+)-tartrate], the inhibition at 2 µM came to 62.5%.
In the case of `O=C(Nc1ccc(Cl)cc1Cl)N[C@@H]1CCC[C@H](c2nc3ccccc3[nH]2)C1` [Example 234, 1-[(1R,3S)-3-(1H-benzimidazol-2-yl)cyclohexyl]-3-(2,4-dichlorophenyl) urea], the inhibition at 2 µM turned out to be 108%.
Same read-out and setting: then `O=C(C[C@H]1C[C@H]2C=C[C@@H]1C2)NC1CCCC(c2nc3ccccc3[nH]2)C1` (stereo partly drawn) [Example 125, N-[3-(1H-benzimidazol-2-yl)cyclohexyl]-2-[(1S,2S,4S)-bicyclo[2.2.1]hept-5-en-2-yl]acetamide triflouroacetate], with 103%; and `O=C(NC1CCCC(c2nc3ccccc3[nH]2)C1)c1n[nH]c2ccccc12` (centres unmarked) [Example 101, N-[3-(1H-benzimidazol-2-yl)cyclohexyl]-1H-indazole-3-carboxamide triflouroacetate], with 56%.
